Test results as given in patent US8541601B2, “Piperazine dithioctate and pharmaceutical composition comprising the same” (Celltrion Chemical Research Institute, priority 2009, dated 2013).

How the values were obtained:
[1] = type: physicochemical; details: for remaining rate of the active ingredient, Initial: 0 h; for remaining rate of the active ingredient, 3 days: 72 h; for remaining rate of the active ingredient, 7 days: 168 h; for remaining rate of the active ingredient, 14 days: 336 h; for remaining rate of the active ingredient, 28 days: 672 h
rats = details: rat, in vivo; cited from earlier work

Row | Structure (SMILES) | remaining rate of the active ingredient, Initial [1] | remaining rate of the active ingredient, 3 days [1] | remaining rate of the active ingredient, 7 days [1] | remaining rate of the active ingredient, 14 days [1] | remaining rate of the active ingredient, 28 days [1] | LD50 (the lethal dose causing death in 50% of rats on oral administration) (rats)
1 | O=C(O)CCCCC1CCSS1 (racemic) [Piperazine dithioctate, Piperazine Dithioctate] | 100.0 | 100% | 100% | 100% | 100% | –
2 | O=C(O)CCCCC1CCSS1 (stereo not shown) [Thioctic acid] | 100.0 | 99.8% | 99.6% | 98.9% | 97.8% | –
3 | NC(CO)(CO)CO.O=C(O)CCCCC1CCSS1 (stereo not shown) [Tromethamine thioctate, Tromethamine Thioctate] | 100.0 | 100% | 100% | 100% | 100% | –
4 | C1CNCCN1 [piperazine] | – | – | – | – | – | 1900 mg/kg
